Experimental data as given in paper PMC10830684, “Effect of Oregon grape root extracts on P-glycoprotein mediated transport in in vitro cell lines” (Journal of Pharmacy & Pharmaceutical Sciences, 2024).
Structures can show the parent of a compound that is named as a salt. Where two headings read alike, the source gives them in different places.

Tests used:
human MDR1 mRNA = test: Real time RT-PCR of MDR1 mRNA in Caco-2 cells; format: cell-based; details: 100 µM, positive control
P-gp = tested on: P-gp; parameters: method as in PMID 12434406; details: Caco-2 cells; inhibitor 1 mM; cited from earlier work
[1] = 14C-mannitol permeability (monolayer integrity) in Caco-2 cells; format: in vitro ADME, human; details: human, Caco-2 cells, read-out: apparent permeability (Papp)
Experimental: (§1) The human intestinal epithelial cell line, LS-180 was purchased from American Type Culture Collection (ATCC) (Manassas, VA, USA) and grown in Minimum Essential Medium supplemented with 10% FBS. The Caco-2 cells were obtained from ATCC. MDCKII-MDR1 and MDCKII wild-type cell lines were a generous gift from Dr. Piet Borst (The Netherlands Cancer Research Institute). Both Caro-2 and MDCKII cells were grown in DMEM, 10% FBS, 0.1 mM non-essential amino acids, and 0.01% penicillin/streptomycin [38, 39]. […] For the transport experiments, cells were seeded, 3.0 × 10^5cells/well, onto 6-well Transwell® inserts 4.71 cm^2 (Corning Costar, Cambridge, MA, USA) and maintained until use on Days 21–25 (Caco-2, passages 23–30) and Days 6–7 (MDCKII-MDR1 and MDCKII wild-type). The integrity of the monolayers was assessed by measuring transepithelial electrical resistance (TEER) using a World Precision Instrument, EVOM (Sarasota, FL, USA) and evaluating ^14C-mannitol transport. […] For the real time RT-PCR, cells were seeded at 6 × 10^5 cells/well (Caco-2) and 1 × 10^6 cells/well (LS-180) onto 6-well Transwell® inserts 4.71 cm^2 and grown for 7 (Caco-2) and 6 (LS-180) days.

Caco-2 cells [2] = test: as above; format: in vitro ADME, human; details: various treatment conditions, throughout the entire experiment
Experimental: as §1

[3] = 14C-mannitol permeability (monolayer integrity) in MDCKII-MDR1 cells; format: in vitro ADME, Canine; details: dog, MDCK-MDR1, read-out: apparent permeability (Papp)
Experimental: as §1

[4] = 14C-mannitol permeability (monolayer integrity) in MDCKII wild-type cells; format: in vitro ADME, Canine; details: dog, MDCK, read-out: apparent permeability (Papp)
Experimental: as §1

[5] = Transepithelial transport of berberine and berbamine across Caco-2 cells; format: in vitro ADME, human; details: human
Experimental: (§2) Transport of ^3H-CsA and ^3H-digoxin (0.5 µM and 1.0 µCi), MDR1 substrates, were performed using transport buffer consisting of HBSS with 10 mM HEPES and 25 mM D-glucose at a pH of 6.8 for the apical (A) compartment and 7.4 for the basolateral (B) compartment. Experiments were performed at 37°C, 5% CO2, and 95% relative humidity. Cells in the Transwell® inserts were washed 3 times with a transport buffer and allowed to equilibrate for 30 min prior to the addition of test compounds. […] To evaluate the efflux mechanism involved with berberine and berbamine, 100 µM of berberine and berbamine were placed in the donor chamber and 100 µL samples were collected in the receiver chamber at 0, 0.5, 1.0, 1.5, 2.0, 2.5, and 3.0 h and analyzed by HPLC. Each experiment was performed in duplicate and repeated for each condition tested. For experiments performed in “non-sink” conditions, 100 µL aliquots were taken from the donor and receiver chambers at the beginning and from the receiver chamber at 0.5, 1.0, 1.5, 2.0, 2.5, and 3.0 h. An equal volume of 100 µL was replaced in the chamber at each sample time point. “Non-sink” conditions were performed when less than 10% of compound is transported across cells during the transport experiment such that a concentration gradient was always present. For the “sink” condition experiments, the entire receiver volume was replaced at each time interval and a 100 µL aliquot was taken from the receiver volume for scintillation counting. A 100 µL sample was taken from the donor chamber at 3 h in order to calculate the mass balance of radioactivity to determine if adsorption to the cell culture transport apparatus had occurred. Each sample was placed in 0.9 mL of scintillation fluor (Cytoscint ES, ICN, Cosa Mesa, CA, USA) and read on a Beckman LS 6500 (Palo Alto, CA, USA) scintillation counter for ^3H activity. For berberine and berbamine analysis, 100 µL aliquot was assayed by HPLC.
(§3) The apparent permeability (Papp) was calculated using the following equation [40]: Papp=dQ/dt×1/A×C0
(§4) Where A is the surface area of the monolayer (4.71 cm^2) and C0 is the initial concentration of radiolabeled probe substrate in the donor compartment. dQ/dt is the slope of the steady-state rate constant. The efflux ratio was determined by dividing the Papp in the B to A direction by the Papp in the A to B direction: Efflux ratio=PappB to A/PappA to B
(§5) A Waters 2690 separations module with a Model 996 photodiode array detector with the Millennium 32 Chromatograph Manager version 3.0 software (Waters Corporation, Milford, MA, USA) was used for HPLC analysis. […] All the standards and samples were filtered (0.2 µm) prior to injection. Ten µL was injected onto a 250 × 4.6 mm i.d., […], Zorbax Eclipse X DB-C18 Column (Agilent Technologies, Palo Alto, CA, USA) with a 3.9 × 20 mm i.d. Symmetry® C18 guard column, with an isocratic mobile phase of 32:68 acetonitrile:buffer. The buffer consisted of 30 mM ammonium acetate and 14 mM TEA and was adjusted to pH 4.85 with acetic acid. A flow rate of 1 mL/min and UV absorption at 254 nm was used for analysis. The retention time of berberine and berbamine was 7.84 min and 3.03 min, respectively. The cumulative amount of transport was determined using the corresponding peak area for berberine or berbamine. The cumulative amount of berberine or berbamine transported across the cell membrane was evaluated as a functionof time. The Papp was calculated by the following equation: […]

Caco-2 cells [6] = test: as above; format: in vitro ADME, human
Experimental: as §2, §3, §4, §5

P-glycoprotein (MDR1) = biological target: T1, P-glycoprotein (MDR1) (Homo sapiens, UniProt P08183); test: Transepithelial transport of berberine and berbamine across MDCKII-MDR1 cells; format: in vitro ADME; details: dog, MDCK-MDR1
T1 construct: expressed in transfected cells; host or cells: MDCKII-MDR1 (Madin-Darby canine kidney II cells overexpressing MDR1)
Experimental: Transport of ^3H-CsA and ^3H-digoxin (0.5 µM and 1.0 µCi), MDR1 substrates, were performed using transport buffer consisting of HBSS with 10 mM HEPES and 25 mM D-glucose at a pH of 6.8 for the apical (A) compartment and 7.4 for the basolateral (B) compartment. Experiments were performed at 37°C, 5% CO2, and 95% relative humidity. Cells in the Transwell® inserts were washed 3 times with a transport buffer and allowed to equilibrate for 30 min prior to the addition of test compounds. […] To evaluate the efflux mechanism involved with berberine and berbamine, 100 µM of berberine and berbamine were placed in the donor chamber and 100 µL samples were collected in the receiver chamber at 0, 0.5, 1.0, 1.5, 2.0, 2.5, and 3.0 h and analyzed by HPLC. Each experiment was performed in duplicate and repeated for each condition tested. […] A 100 µL sample was taken from the donor chamber at 3 h in order to calculate the mass balance of radioactivity to determine if adsorption to the cell culture transport apparatus had occurred. Each sample was placed in 0.9 mL of scintillation fluor (Cytoscint ES, ICN, Cosa Mesa, CA, USA) and read on a Beckman LS 6500 (Palo Alto, CA, USA) scintillation counter for ^3H activity. […]
The apparent permeability (Papp) was calculated using the following equation [40]: Papp=dQ/dt×1/A×C0 […]

Caco-2 cells [7] = test: MTT cytotoxicity assay in Caco-2 cells; format: cell-based, human; details: for MTT assay: 4 hours exposure
From the text: (§6) We initiated cytotoxicity experiments with the Caco-2, MDCKII-MDR1 and MDCKII-wild type cells on Day 7 (Caco-2) and Day 4 (MDCKII-MDR1 and MDCKII-wild type) after the initial plating of the cells at 2.5 × 10^3 cells/well in 48-well plates (Becton Dickinson, Franklin Lakes, NJ, USA). See details of preparation for the cytotoxicity experiments in Supplementary Material.
(§7) We initiated cytotoxicity experiments with the Caco-2, MDCKII-MDR1 and MDCKII-wild type cells on Day 7 (Caco-2) and Day 4 (MDCKII-MDR1 and MDCKII-wild type) after the initial plating of the cells at 2.5x10^3 cells/well in 48-well plates (Becton Dickinson, Franklin Lakes, NJ, USA). Stock solutions of 10 mM berberine or berbamine were prepared by dissolving the compounds in DMSO (berberine) or distilled water (berbamine).
(§8) The LDH enzymatic activities were assayed using the method of Mitchell et al.(1). […] Enzyme leakage into the medium was expressed as the percentage of total cellular LDH. The MTT (3-(4,5-dimethythiazole-2yl)-2,5-diphenyl tetrazolium bromide) reduction assay was done according to Mosmann (2). This assay was conducted immediately with the same cells used in the LDH study. The results were expressed as the percentage of negative controls.

Caco-2 cells [8] = test: LDH leakage cytotoxicity assay in Caco-2 cells; format: cell-based, human; details: 300 µM, 4 hours exposure
From the text: as §6, §7, §8

MDCKII-MDR1 cells = test: MTT cytotoxicity assay in MDCKII-MDR1 cells; format: cell-based, Canine; details: 4 hours exposure
From the text: as §6
(§9) We initiated cytotoxicity experiments with the Caco-2, MDCKII-MDR1 and MDCKII-wild type cells on Day 7 (Caco-2) and Day 4 (MDCKII-MDR1 and MDCKII-wild type) after the initial plating of the cells at 2.5x10^3 cells/well in 48-well plates (Becton Dickinson, Franklin Lakes, NJ, USA). Stock solutions of 10 mM berberine or berbamine were prepared by dissolving the compounds in DMSO (berberine) or distilled water (berbamine). […] The final concentration of DMSO was 0.003% (v/v), 0.03% (v/v), 0.3% (v/v), 1% (v/v), 1.5% (v/v), and 3% (v/v) DMSO/culture medium for 0.3 μM, 3 μM, 30 μM, 100 μM, ,150 μM, and 300 μM, respectively. The final concentration of ethanol was 0.15% (v/v) ethanol/culture medium. Ketoconazole (75 µM) was used as a positive control and no treatment (medium alone) was used as a negative control for each experiment.
as §8

MDCKII wild-type cells = test: MTT cytotoxicity assay in MDCKII wild-type cells; format: cell-based, Canine; details: MDCKII-WT cells, 4 hours exposure
From the text: as §6, §9, §8

P-glycoprotein = P-glycoprotein (Homo sapiens, UniProt P08183); test: Effect on 3H-CsA and 3H-digoxin transport in Caco-2 cells; details: Caco-2 cells
Chain of P-glycoprotein (P08183 whole entry): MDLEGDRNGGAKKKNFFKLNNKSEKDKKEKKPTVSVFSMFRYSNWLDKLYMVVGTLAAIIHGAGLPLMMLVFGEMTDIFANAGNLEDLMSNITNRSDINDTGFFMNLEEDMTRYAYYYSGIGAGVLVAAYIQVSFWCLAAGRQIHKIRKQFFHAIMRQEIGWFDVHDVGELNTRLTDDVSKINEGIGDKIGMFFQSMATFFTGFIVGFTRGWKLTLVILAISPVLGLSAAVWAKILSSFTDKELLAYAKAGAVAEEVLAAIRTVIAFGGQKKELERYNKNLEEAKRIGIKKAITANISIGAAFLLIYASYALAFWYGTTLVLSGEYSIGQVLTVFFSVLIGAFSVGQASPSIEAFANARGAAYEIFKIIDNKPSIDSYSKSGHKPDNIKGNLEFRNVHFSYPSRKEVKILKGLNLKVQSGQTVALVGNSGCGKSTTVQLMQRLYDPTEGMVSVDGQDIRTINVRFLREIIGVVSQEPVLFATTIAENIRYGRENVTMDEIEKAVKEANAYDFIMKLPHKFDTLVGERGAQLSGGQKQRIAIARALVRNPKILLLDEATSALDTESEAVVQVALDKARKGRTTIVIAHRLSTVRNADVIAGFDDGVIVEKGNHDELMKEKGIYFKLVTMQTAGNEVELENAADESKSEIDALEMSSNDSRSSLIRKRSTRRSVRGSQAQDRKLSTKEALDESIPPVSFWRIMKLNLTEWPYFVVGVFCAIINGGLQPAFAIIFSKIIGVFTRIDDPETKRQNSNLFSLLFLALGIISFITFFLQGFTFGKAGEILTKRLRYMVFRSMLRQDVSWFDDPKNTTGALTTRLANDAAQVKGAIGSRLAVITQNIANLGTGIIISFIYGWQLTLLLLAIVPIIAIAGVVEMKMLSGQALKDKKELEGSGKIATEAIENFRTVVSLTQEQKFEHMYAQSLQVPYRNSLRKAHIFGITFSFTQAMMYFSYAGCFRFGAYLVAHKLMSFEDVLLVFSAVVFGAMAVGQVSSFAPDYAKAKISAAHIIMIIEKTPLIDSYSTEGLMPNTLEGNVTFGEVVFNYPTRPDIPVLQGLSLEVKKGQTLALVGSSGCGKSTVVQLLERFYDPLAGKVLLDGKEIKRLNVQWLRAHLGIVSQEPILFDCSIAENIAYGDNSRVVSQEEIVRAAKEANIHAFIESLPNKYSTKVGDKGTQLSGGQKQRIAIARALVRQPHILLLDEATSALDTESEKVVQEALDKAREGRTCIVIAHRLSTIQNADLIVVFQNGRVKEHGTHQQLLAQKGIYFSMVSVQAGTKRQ

T1 sequence (P08183 whole entry): as above

SMILES: N[C@@H](Cc1cc(I)c(Oc2cc(I)c(O)c(I)c2)c(I)c1)C(=O)O [levothyroxine]
- P-gp (MDR1) mRNA (human MDR1 mRNA): significantly increase

SMILES: COC(=O)c1ccccc1-c1c2ccc(=N)cc-2oc2cc(N)ccc12 [rhodamine123]
- inhibition of the efflux of 20 µM berberine (P-gp): 100%

SMILES: OC[C@@H](O)[C@@H](O)[C@H](O)[C@H](O)CO [mannitol]
- Papp [1]: 2.09 ± 0.4 ×10⁻⁶ cm/s
- transport rate (Caco-2 cells [2]): less than 1 % per hour
- Papp [3]: 2.38 ± 0.13 ×10⁻⁶ cm/s
- Papp [4]: 2.16 ± 0.72 ×10⁻⁶ cm/s

SMILES: COc1cc2c3cc1Oc1c(OC)c(OC)cc4c1[C@@H](Cc1ccc(O)c(c1)Oc1ccc(cc1)C[C@@H]3N(C)CC2)N(C)CC4 [Berbamine, berbamine dihydrochloride]
- efflux ratio at 3 h, 100 µM ([5]; Caco-2, 100 µM, Caco-2 cells, read-out: fold increase of Papp B to A compared with A to B): ~30
- efflux ratio at 3 h, 100 µM ([5]; Caco-2, Caco-2 cells, read-out: efflux ratio): 24.2 ± 4.5
- Papp A→B at 3 h, 100 µM ([5]; 100 µM, Caco-2 cells, read-out: Papp A to B direction): 2.49 ×10⁻⁶ cm/s
- Papp B→A at 3 h, 100 µM ([5]; 100 µM, Caco-2 cells, read-out: Papp B to A direction): 60.3 ×10⁻⁶ cm/s
- transport in the A to B direction (Caco-2 cells [6]; 100 µM, Caco-2 cells): 0.39 nmol/min
- transport in the B to A direction (Caco-2 cells [6]; 100 µM, Caco-2 cells): 5.94 nmol/min
- extent of efflux relative to berberine (Caco-2 cells [6]; Caco-2 and MDCKII-MDR1 cells): ~5 fold
- efflux ratio at 3 h, 100 µM (P-glycoprotein (MDR1)): 27.4 ± 5.1
- MTT assay (Caco-2 cells [7]; 0.03 µM): □ (%MTT reduction is not significantly decreased compared with the negative control)
- MTT assay (Caco-2 cells [7]; 0.3 µM): □ (%MTT reduction is not significantly decreased compared with the negative control)
- MTT assay (Caco-2 cells [7]; 30 µM): □ (%MTT reduction is not significantly decreased compared with the negative control)
- MTT assay (Caco-2 cells [7]; 100 µM): □ (%MTT reduction is not significantly decreased compared with the negative control)
- MTT assay (Caco-2 cells [7]; 150 µM): □ (%MTT reduction is not significantly decreased compared with the negative control)
- MTT assay (Caco-2 cells [7]; 300 µM): 64.99 ± 11.46%
- earliest time of significant increase in LDH leakage and decrease in MTT reduction (Caco-2 cells [7]; 300 µM, time-response 2, 4, 6, 8 hr, data not shown): 2 h
- LDH assay (Caco-2 cells [8]): 43.88 ± 7.44%
- MTT assay (MDCKII-MDR1 cells; 0.03 µM): □ (%MTT reduction is not significantly decreased compared with the negative control)
- MTT assay (MDCKII-MDR1 cells; 0.3 µM): □ (%MTT reduction is not significantly decreased compared with the negative control)
- MTT assay (MDCKII-MDR1 cells; 30 µM): □ (%MTT reduction is not significantly decreased compared with the negative control)
- MTT assay (MDCKII-MDR1 cells; 100 µM): □ (%MTT reduction is not significantly decreased compared with the negative control)
- MTT assay (MDCKII-MDR1 cells; 150 µM): □ (%MTT reduction is not significantly decreased compared with the negative control)
- MTT assay (MDCKII-MDR1 cells; 300 µM): □ (%MTT reduction is not significantly decreased compared with the negative control)
- MTT assay (MDCKII wild-type cells; 0.03 µM): □ (%MTT reduction is not significantly decreased compared with the negative control)
- MTT assay (MDCKII wild-type cells; 0.3 µM): □ (%MTT reduction is not significantly decreased compared with the negative control)
- MTT assay (MDCKII wild-type cells; 30 µM): □ (%MTT reduction is not significantly decreased compared with the negative control)
- MTT assay (MDCKII wild-type cells; 100 µM): □ (%MTT reduction is not significantly decreased compared with the negative control)
- MTT assay (MDCKII wild-type cells; 150 µM): □ (%MTT reduction is not significantly decreased compared with the negative control)
- MTT assay (MDCKII wild-type cells; 300 µM): 64.32 ± 13.1%
- lowest concentration with significant decrease of B to A transport of 0.5 µM 3H-CsA (P-glycoprotein): 30 µM

SMILES: COc1cccc2c1C(=O)c1c(O)c3c(c(O)c1C2=O)C[C@@](O)(C(C)=O)C[C@@H]3O[C@H]1C[C@H](N)[C@H](O)[C@H](C)O1 [daunomycin]
- inhibition of the efflux of 20 µM berberine (P-gp): 100%
